# Source: PubChem BioAssay AID212 (DTP/NCI, 2004)
# “And” between values parts separate entries of the source, which are not always exact repeats. Equal entries are not always repeated. Inconclusive results are not listed.
# Test system: BDF1 mice, colon carcinoma 38 sc, T/C %
# Assay: NCI In Vivo Anticancer Drug Screen. Data for tumor model Colon Carcinoma 38 (subcutaneous) in B6D2F1 (BDF1) mice
# How it was run: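 Transplantable tumor in mice; compound-treated vs vehicle-dosed controls. Measured survival or tumor size; value = T ÷ C.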
# [1] = endpoint: median tumor weight (est.), dose: 25.0 mg/kg/injection, schedule: Q07DX002 (ip), vehicle: water, higher = larger tumour
# [2] = endpoint: median tumor weight (est.), dose: 50.0 mg/kg/injection, schedule: Q07DX002 (ip), vehicle: water, higher = larger tumour
smiles,measurement,setting,value
N=[N+]=CC(=O)OCC(N)C(=O)O (stereo unspecified),T/C,"endpoint: median tumor weight (est.), dose: 3.12 mg/kg/injection, schedule: Q07DX002 (ip), vehicle: water, higher = larger tumour",97 % of control
same,T/C,"endpoint: median tumor weight (est.), dose: 3.12 mg/kg/injection, schedule: Q07DX003 (ip), vehicle: clinical formulation, higher = larger tumour",159 % of control
same,T/C,"endpoint: median tumor weight (est.), dose: 6.25 mg/kg/injection, schedule: Q07DX002 (ip), vehicle: water, higher = larger tumour",117 % of control
same,T/C,"endpoint: median tumor weight (est.), dose: 6.25 mg/kg/injection, schedule: Q07DX003 (ip), vehicle: clinical formulation, higher = larger tumour",110 % of control
same,T/C,"endpoint: median tumor weight (est.), dose: 12.5 mg/kg/injection, schedule: Q07DX003 (ip), vehicle: clinical formulation, higher = larger tumour",88 % of control
same,T/C,[1],99 % of control
same,T/C,"endpoint: median tumor weight (est.), dose: 25.0 mg/kg/injection, schedule: Q07DX003 (ip), vehicle: clinical formulation, higher = larger tumour",100 % of control
same,T/C,[2],91 % of control
Nc1cc(Cl)c2[nH]cnc2n1,T/C,"endpoint: median tumor weight (est.), dose: 12.5 mg/kg/injection, schedule: Q07DX002 (ip), vehicle: water, higher = larger tumour",86 % of control
same,T/C,[1],119 % of control
same,T/C,"endpoint: median tumor weight (est.), dose: 50.0 mg/kg/injection, schedule: Q07DX002 (ip), vehicle: distilled water + Tween-80, higher = larger tumour",99 % of control
same,T/C,[2],82 % of control
same,T/C,"endpoint: median tumor weight (est.), dose: 100.0 mg/kg/injection, schedule: Q07DX002 (ip), vehicle: distilled water + Tween-80, higher = larger tumour",76 % of control
same,T/C,"endpoint: median tumor weight (est.), dose: 100.0 mg/kg/injection, schedule: Q07DX002 (ip), vehicle: water, higher = larger tumour",101 % of control
same,T/C,"endpoint: median tumor weight (est.), dose: 200.0 mg/kg/injection, schedule: Q07DX002 (ip), vehicle: distilled water + Tween-80, higher = larger tumour",108 % of control
same,T/C,"endpoint: median tumor weight (est.), dose: 200.0 mg/kg/injection, schedule: Q07DX002 (ip), vehicle: water, higher = larger tumour",81 % of control
same,T/C,"endpoint: median tumor weight (est.), dose: 400.0 mg/kg/injection, schedule: Q07DX002 (ip), vehicle: water, higher = larger tumour",81 % of control
C=C(C)C(=O)OC1C/C(CO)=C\C(O)C/C(C)=C/C2OC(=O)C(=C)C21 (stereo unspecified),T/C,"endpoint: median tumor weight (est.), dose: 2.5 mg/kg/injection, schedule: Q07DX002 (ip), vehicle: saline + alcohol, higher = larger tumour",105 % of control
same,T/C,"endpoint: median tumor weight (est.), dose: 5.0 mg/kg/injection, schedule: Q07DX002 (ip), vehicle: saline + alcohol, higher = larger tumour",117 % of control
same,T/C,"endpoint: median tumor weight (est.), dose: 20.0 mg/kg/injection, schedule: Q07DX002 (ip), vehicle: saline + alcohol, higher = larger tumour",120 % of control
same,T/C,"endpoint: median tumor weight (est.), dose: 40.0 mg/kg/injection, schedule: Q07DX002 (ip), vehicle: saline + alcohol, higher = larger tumour",119 % of control
Nc1ncnc2c1ncn2C1OC(COS(N)(=O)=O)C(O)C1O (stereo unspecified),T/C,"endpoint: median survival time, dose: 0.25 mg/kg/injection, schedule: Q02DX004 (sc), vehicle: saline, higher = longer survival",100 % of control
same,T/C,"endpoint: median survival time, dose: 0.5 mg/kg/injection, schedule: Q02DX004 (sc), vehicle: saline, higher = longer survival",100 % of control
NC(=O)c1[nH]nc(C2OC(CO)C(O)C2O)c1O (stereo unspecified),T/C,"endpoint: median survival time, dose: 0.75 mg/kg/injection, schedule: Q04DX004 (ip), vehicle: saline, higher = longer survival",77 % of control and 79 % of control
same,T/C,"endpoint: median survival time, dose: 1.5 mg/kg/injection, schedule: Q04DX004 (ip), vehicle: saline, higher = longer survival",90 % of control and 105 % of control
same,T/C,"endpoint: median survival time, dose: 3.0 mg/kg/injection, schedule: Q04DX004 (ip), vehicle: saline, higher = longer survival",63 % of control and 65 % of control
same,T/C,"endpoint: median survival time, dose: 6.0 mg/kg/injection, schedule: Q04DX004 (ip), vehicle: saline, higher = longer survival",59 % of control
same,T/C,"endpoint: median survival time, dose: 12.0 mg/kg/injection, schedule: Q04DX004 (ip), vehicle: saline, higher = longer survival",43 % of control
same,T/C,"endpoint: median tumor weight (est.), dose: 0.31 mg/kg/injection, schedule: Q07DX003 (ip), vehicle: saline, higher = larger tumour",117 % of control
same,T/C,"endpoint: median tumor weight (est.), dose: 0.62 mg/kg/injection, schedule: Q07DX003 (ip), vehicle: saline, higher = larger tumour",90 % of control
same,T/C,"endpoint: median tumor weight (est.), dose: 1.25 mg/kg/injection, schedule: Q07DX003 (ip), vehicle: saline, higher = larger tumour",97 % of control
same,T/C,"endpoint: median tumor weight (est.), dose: 4.32 mg/kg/injection, schedule: Q04DX004 (ip), vehicle: saline, higher = larger tumour",81 % of control
same,T/C,"endpoint: median tumor weight (est.), dose: 5.0 mg/kg/injection, schedule: Q07DX002 (ip), vehicle: saline, higher = larger tumour",100 % of control
same,T/C,"endpoint: median tumor weight (est.), dose: 5.0 mg/kg/injection, schedule: Q07DX003 (ip), vehicle: saline, higher = larger tumour",93 % of control
same,T/C,"endpoint: median tumor weight (est.), dose: 7.2 mg/kg/injection, schedule: Q04DX004 (ip), vehicle: saline, higher = larger tumour",61 % of control
same,T/C,"endpoint: median tumor weight (est.), dose: 10.0 mg/kg/injection, schedule: Q07DX002 (ip), vehicle: saline, higher = larger tumour",86 % of control
same,T/C,"endpoint: median tumor weight (est.), dose: 10.0 mg/kg/injection, schedule: Q07DX003 (ip), vehicle: saline, higher = larger tumour",82 % of control
same,T/C,"endpoint: median tumor weight (est.), dose: 12.0 mg/kg/injection, schedule: Q04DX004 (ip), vehicle: saline, higher = larger tumour",17 % of control
CCCC(=O)OCc1cc(=O)n(C)c2c3c4c(cc12)c(C)cc(=O)n4CO3,T/C,"endpoint: median tumor weight (est.), dose: 6.25 mg/kg/injection, schedule: Q07DX002 (ip), vehicle: Klucel (hydroxypropylcellulose) (HPC), higher = larger tumour",99 % of control
same,T/C,"endpoint: median tumor weight (est.), dose: 12.5 mg/kg/injection, schedule: Q07DX002 (ip), vehicle: Klucel (hydroxypropylcellulose) (HPC), higher = larger tumour",96 % of control
same,T/C,"endpoint: median tumor weight (est.), dose: 25.0 mg/kg/injection, schedule: Q07DX002 (ip), vehicle: Klucel (hydroxypropylcellulose) (HPC), higher = larger tumour",162 % of control
same,T/C,"endpoint: median tumor weight (est.), dose: 50.0 mg/kg/injection, schedule: Q07DX002 (ip), vehicle: Klucel (hydroxypropylcellulose) (HPC), higher = larger tumour",150 % of control
same,T/C,"endpoint: median tumor weight (est.), dose: 100.0 mg/kg/injection, schedule: Q07DX002 (ip), vehicle: Klucel (hydroxypropylcellulose) (HPC), higher = larger tumour",64 % of control
C#CCN(Cc1ccc2nc(N)[nH]c(=O)c2c1)c1ccc(C(=O)NC(CCC(=O)O)C(=O)O)cc1 (stereo unspecified),T/C,"endpoint: median tumor weight (est.), dose: 50.0 mg/kg/injection, schedule: Q07DX002 (ip), vehicle: sodium bicarbonate, higher = larger tumour",60 % of control
same,T/C,"endpoint: median tumor weight (est.), dose: 100.0 mg/kg/injection, schedule: Q07DX002 (ip), vehicle: sodium bicarbonate, higher = larger tumour",70 % of control
same,T/C,"endpoint: median tumor weight (est.), dose: 200.0 mg/kg/injection, schedule: Q07DX002 (ip), vehicle: sodium bicarbonate, higher = larger tumour",49 % of control
same,T/C,"endpoint: median tumor weight (est.), dose: 400.0 mg/kg/injection, schedule: Q07DX002 (ip), vehicle: sodium bicarbonate, higher = larger tumour",51 % of control
O=C1NC(=O)NC(C(=O)O)N1,T/C,"endpoint: median tumor weight (est.), dose: 56.25 mg/kg/injection, schedule: Q01DX001 (ip), vehicle: DMSO, higher = larger tumour",90 % of control
same,T/C,"endpoint: median tumor weight (est.), dose: 56.25 mg/kg/injection, schedule: Q07DX002 (ip), vehicle: DMSO, higher = larger tumour",122 % of control
same,T/C,"endpoint: median tumor weight (est.), dose: 112.5 mg/kg/injection, schedule: Q01DX001 (ip), vehicle: DMSO, higher = larger tumour",101 % of control
same,T/C,"endpoint: median tumor weight (est.), dose: 112.5 mg/kg/injection, schedule: Q07DX002 (ip), vehicle: DMSO, higher = larger tumour",121 % of control
same,T/C,"endpoint: median tumor weight (est.), dose: 225.0 mg/kg/injection, schedule: Q01DX001 (ip), vehicle: DMSO, higher = larger tumour",97 % of control
same,T/C,"endpoint: median tumor weight (est.), dose: 225.0 mg/kg/injection, schedule: Q07DX002 (ip), vehicle: DMSO, higher = larger tumour",75 % of control
same,T/C,"endpoint: median tumor weight (est.), dose: 450.0 mg/kg/injection, schedule: Q01DX001 (ip), vehicle: DMSO, higher = larger tumour",97 % of control
same,T/C,"endpoint: median tumor weight (est.), dose: 450.0 mg/kg/injection, schedule: Q07DX002 (ip), vehicle: DMSO, higher = larger tumour",101 % of control
same,T/C,"endpoint: median tumor weight (est.), dose: 900.0 mg/kg/injection, schedule: Q01DX001 (ip), vehicle: DMSO, higher = larger tumour",71 % of control
same,T/C,"endpoint: median tumor weight (est.), dose: 900.0 mg/kg/injection, schedule: Q07DX002 (ip), vehicle: DMSO, higher = larger tumour",108 % of control
same,T/C,"endpoint: median tumor weight (est.), dose: 1800.0 mg/kg/injection, schedule: Q07DX002 (ip), vehicle: DMSO, higher = larger tumour",112 % of control
O=C/C(Cl)=C(/Cl)C(=O)O,T/C,"endpoint: median tumor weight (est.), dose: 5.0 mg/kg/injection, schedule: Q07DX002 (ip), vehicle: saline with Tween-80, higher = larger tumour",63 % of control
same,T/C,"endpoint: median tumor weight (est.), dose: 10.0 mg/kg/injection, schedule: Q07DX002 (ip), vehicle: saline with Tween-80, higher = larger tumour",113 % of control and 92 % of control
CC(C)[C@]12O[C@H]1[C@@H]1O[C@]13[C@]1(O[C@H]1C[C@H]1C4=C(C(=O)OC4)[C@@H](O)C[C@@]13C)[C@@H]2O,T/C,"endpoint: median tumor weight (est.), dose: 25.0 micrograms/kg/injection, schedule: Q07DX002 (ip), vehicle: saline + alcohol, higher = larger tumour",113 % of control
same,T/C,"endpoint: median tumor weight (est.), dose: 100.0 micrograms/kg/injection, schedule: Q07DX002 (ip), vehicle: saline + alcohol, higher = larger tumour",113 % of control
same,T/C,"endpoint: median tumor weight (est.), dose: 200.0 micrograms/kg/injection, schedule: Q07DX002 (ip), vehicle: saline + alcohol, higher = larger tumour",109 % of control
same,T/C,"endpoint: median tumor weight (est.), dose: 400.0 micrograms/kg/injection, schedule: Q07DX002 (ip), vehicle: saline + alcohol, higher = larger tumour",63 % of control
Nc1nc(N)c2cc(S(=O)(=O)c3ccccc3)ccc2n1,T/C,"endpoint: median survival time, dose: 57.0 mg/kg/injection, schedule: Q06HX014 (ip), vehicle: saline with Tween-80, higher = longer survival",166 % of control
same,T/C,"endpoint: median survival time, dose: 86.0 mg/kg/injection, schedule: Q06HX014 (ip), vehicle: saline with Tween-80, higher = longer survival",205 % of control
same,T/C,"endpoint: median survival time, dose: 520.0 mg/kg/injection, schedule: Q07DX002 (ip), vehicle: saline with Tween-80, higher = longer survival",118 % of control
same,T/C,"endpoint: median tumor weight (est.), dose: 100.0 mg/kg/injection, schedule: Q07DX002 (ip), vehicle: saline with Tween-80, higher = larger tumour",106 % of control
same,T/C,"endpoint: median tumor weight (est.), dose: 200.0 mg/kg/injection, schedule: Q07DX002 (ip), vehicle: saline with Tween-80, higher = larger tumour",190 % of control
same,T/C,"endpoint: median tumor weight (est.), dose: 400.0 mg/kg/injection, schedule: Q07DX002 (ip), vehicle: saline with Tween-80, higher = larger tumour",169 % of control
same,T/C,"endpoint: median tumor weight (est.), dose: 800.0 mg/kg/injection, schedule: Q07DX002 (ip), vehicle: saline with Tween-80, higher = larger tumour",21 % of control
